pEC50, pKd: −log10 of the molar value. Where two headings read alike, the source gives them in different places.
Assays:
[1] = Daily repeat dosing for 2 weeks in normal mice, adverse effects; type: in vivo, mouse
Description: In a separate set of experiments, daily repeat dosing experiments were performed to assess adverse effects. […] During the course of the experiment, animals were monitored daily for the appearance of any clinical signs. Hematology, blood chemistry, and histopathology were followed at termination of the experiment.

[2] = tested on: human hepatocytes; assay: Metabolism in cultured hepatocytes; type: in vitro ADME
[3] = Brain concentration after IV BA-1049 (R), LC-MS/MS; type: in vivo; settings: mouse
Description: Mice are dosed either by intravenous (IV) administration or oral (PO) administration via oral gavage.
After IV dosing, brains are collected from 4 mice at each time point: 0.083 hr, 0.5 hr, 2 hr, 6 hr, 12 hr, and 24 hr after dose. Each mouse is euthanized by CO2. The entire brains are removed, weighed, rinsed with PBS, placed in tubes, and snap frozen in liquid nitrogen.
Brain tissue was homogenized in 1 mL/g PBS. Brain homogenates are precipitated by pipetting 200 μL of homogenate into a tube using aseptically cut off 1000 μL pipette tips to prevent clogging.

[4] = tested on: intracellular ROCK activity (ppMLC2 T18/S19) in HUVECs; assay: HUVEC ppMLC2 dose-response; type: cell-based, human; settings: for pEC50: 1 h exposure, read-out: EC50 for reduction of MLC2 diphosphorylation; for maximum reduction of ppMLC2 levels: highest dose tested 1 mM, 1 h
Description: Cells were exposed to each dose for 1 h. All experiments were conducted in triplicate and analyzed by 2 independent assessors blinded to the compound and compound concentration.
Cells were subjected to biochemical protein analysis of di-phosphorylated MLC2 (Threonine 18/Serine 19 phosphorylation sites) using SDS-PAGE and immunoblotting. Cells were plated in a 24-well tissue culture plates, coated with 70 μg/ml rat collagen-1 (Corning) and grown for 2-3 days at 37° C./5% CO2 until confluency. […] Drugs were diluted in Medium 200 (Thermo Fisher Scientific) supplemented with 0.1% human serum albumin (HSA, Sigma-Aldrich). After 1 h, cells were lysed with RIPA buffer (Boston Bioproducts; Ashland, Mass.) supplemented with complete protease/phosphatase inhibitors (HALT, Thermo Fisher Scientific), reduced, and denatured with Laemmli sample buffer (BioRad)/beta-mercaptoethanol. Denatured samples were electrophoresed in reducing 10% Bis-Tris-PA gels (Novex) and then transferred onto 0.25 μm PVDF membranes (EMD Millipore). Membranes were incubated with 4% bovine serum albumin solution to block unspecific antibody binding sites and then immunolabeled for ppMLC2 T18/S19 (1:500, Cell Signaling) and glyceraldehyde 3-phosphate dehydrogenase loading control (GAPDH, 1:10,000; Abcam). Protein levels were detected using a chemiluminescence substrate (Super Signal West, ThermoFisher) and were captured with FluoroChem SP imaging system. Chemiluminescence of ppMLC2 and GAPDH was measured by densitometric analysis. ppMLC2 signal was normalized against GAPDH signal plotted as percentage of no treatment control (0 μM). EC50 values were determined by dose-response analysis using GraphPad software.

[5] = target: ALK (Homo sapiens (Human), UniProt Q9UM73); assay: KINOMEscan kinome screen; settings: percent of negative control binding
Sequence of ALK (Q9UM73 19-1620): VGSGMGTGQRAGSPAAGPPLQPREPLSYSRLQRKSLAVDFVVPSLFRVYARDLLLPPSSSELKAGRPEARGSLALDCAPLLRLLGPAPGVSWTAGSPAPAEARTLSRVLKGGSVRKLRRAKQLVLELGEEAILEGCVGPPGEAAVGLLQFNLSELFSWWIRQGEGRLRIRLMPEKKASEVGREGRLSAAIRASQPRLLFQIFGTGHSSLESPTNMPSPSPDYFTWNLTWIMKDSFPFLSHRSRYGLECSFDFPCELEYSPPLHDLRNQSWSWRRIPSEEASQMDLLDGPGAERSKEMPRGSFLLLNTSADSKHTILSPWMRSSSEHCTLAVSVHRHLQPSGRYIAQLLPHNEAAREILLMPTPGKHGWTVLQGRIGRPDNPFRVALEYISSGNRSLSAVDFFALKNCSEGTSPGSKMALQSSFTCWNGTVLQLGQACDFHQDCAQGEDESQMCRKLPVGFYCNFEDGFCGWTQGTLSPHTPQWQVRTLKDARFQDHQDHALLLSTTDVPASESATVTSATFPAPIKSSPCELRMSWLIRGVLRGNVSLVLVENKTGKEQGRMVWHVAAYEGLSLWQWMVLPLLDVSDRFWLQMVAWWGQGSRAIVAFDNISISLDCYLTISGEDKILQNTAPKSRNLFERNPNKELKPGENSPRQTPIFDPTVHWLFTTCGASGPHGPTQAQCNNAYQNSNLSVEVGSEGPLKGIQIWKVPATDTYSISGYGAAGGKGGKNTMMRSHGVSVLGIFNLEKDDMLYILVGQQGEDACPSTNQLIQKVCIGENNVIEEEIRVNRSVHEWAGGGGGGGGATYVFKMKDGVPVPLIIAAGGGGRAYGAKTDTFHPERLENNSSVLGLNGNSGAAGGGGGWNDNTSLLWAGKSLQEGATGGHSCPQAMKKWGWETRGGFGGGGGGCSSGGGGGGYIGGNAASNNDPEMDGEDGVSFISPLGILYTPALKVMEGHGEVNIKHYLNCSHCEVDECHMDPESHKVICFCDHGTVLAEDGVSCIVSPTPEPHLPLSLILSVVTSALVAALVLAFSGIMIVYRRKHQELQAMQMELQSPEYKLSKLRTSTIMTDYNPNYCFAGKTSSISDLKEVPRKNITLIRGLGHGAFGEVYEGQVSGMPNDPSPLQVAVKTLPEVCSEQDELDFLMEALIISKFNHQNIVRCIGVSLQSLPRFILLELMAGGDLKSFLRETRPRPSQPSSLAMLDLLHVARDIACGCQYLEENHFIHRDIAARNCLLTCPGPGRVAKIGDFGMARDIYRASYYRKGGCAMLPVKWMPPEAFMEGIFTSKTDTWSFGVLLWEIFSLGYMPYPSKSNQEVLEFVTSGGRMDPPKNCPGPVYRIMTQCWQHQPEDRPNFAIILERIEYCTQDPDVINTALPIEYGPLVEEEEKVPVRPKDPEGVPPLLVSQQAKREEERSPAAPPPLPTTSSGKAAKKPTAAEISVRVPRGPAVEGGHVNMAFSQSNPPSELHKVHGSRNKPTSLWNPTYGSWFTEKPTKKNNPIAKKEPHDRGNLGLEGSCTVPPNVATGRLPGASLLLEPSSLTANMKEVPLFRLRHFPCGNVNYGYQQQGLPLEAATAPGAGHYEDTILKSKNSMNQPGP
Excerpt: (§1) The KINOMEscan™ screening platform (DiscoverX, Fremont, Calif.) employs a novel active site-directed competition binding assay to quantitatively measure interactions between test compounds and more than 450 human kinases and disease relevant mutant variants. […] Compounds that bind the kinase active site and directly (sterically) or indirectly (allosterically) prevent kinase binding to the immobilized ligand, will reduce the amount of kinase captured on the solid support. […] Screening “hits” are identified by measuring the amount of kinase captured in test versus control samples by using a quantitative, precise and ultra-sensitive qPCR method that detects the associated DNA label.
(§2) Kinase-tagged T7 phage strains were grown in parallel in 24-well blocks in an E. coli host derived from the BL21 strain. E. coli were grown to log-phase and infected with T7 phage from a frozen stock (multiplicity of infection=0.4) and incubated with shaking at 32° C. until lysis (90-150 minutes). The lysates were centrifuged (6,000×g) and filtered (0.2 μm) to remove cell debris. The remaining kinases were produced in HEK-293 cells and subsequently tagged with DNA for qPCR detection (Wein, et al. (2016) Nat. Comm. 7). […] Test compounds were prepared as 40× stocks in 100% DMSO and directly diluted into the assay. All reactions were performed in polypropylene 384-well plates in a final volume of 0.02 ml.

[6] = target: FGFR4 (Homo sapiens (Human), UniProt P22455); assay: KINOMEscan kinome screen; settings: percent of negative control binding
Excerpt: as §1, §2

[7] = target: IRAK3 (Homo sapiens (Human), UniProt Q9Y616); assay: KINOMEscan kinome screen; settings: percent of negative control binding
Sequence of IRAK3 (Q9Y616 whole entry): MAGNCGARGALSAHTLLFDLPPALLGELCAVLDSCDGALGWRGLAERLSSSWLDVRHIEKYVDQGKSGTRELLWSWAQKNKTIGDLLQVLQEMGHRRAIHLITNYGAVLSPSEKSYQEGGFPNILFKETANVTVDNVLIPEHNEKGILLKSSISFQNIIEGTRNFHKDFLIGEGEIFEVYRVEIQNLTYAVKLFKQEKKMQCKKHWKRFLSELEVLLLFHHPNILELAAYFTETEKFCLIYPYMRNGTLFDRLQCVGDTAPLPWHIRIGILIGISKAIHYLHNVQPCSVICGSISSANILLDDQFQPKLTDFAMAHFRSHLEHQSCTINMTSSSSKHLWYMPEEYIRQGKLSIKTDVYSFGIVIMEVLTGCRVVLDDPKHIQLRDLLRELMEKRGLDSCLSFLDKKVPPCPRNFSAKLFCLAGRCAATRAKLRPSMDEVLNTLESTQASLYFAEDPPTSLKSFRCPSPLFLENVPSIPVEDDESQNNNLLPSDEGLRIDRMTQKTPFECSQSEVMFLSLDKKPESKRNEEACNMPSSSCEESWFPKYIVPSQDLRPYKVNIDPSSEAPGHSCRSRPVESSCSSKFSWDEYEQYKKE
Excerpt: as §1, §2

[8] = target: MARK1 (Homo sapiens (Human), UniProt Q9P0L2); assay: KINOMEscan kinome screen; settings: percent of negative control binding
Sequence of MARK1 (Q9P0L2 whole entry): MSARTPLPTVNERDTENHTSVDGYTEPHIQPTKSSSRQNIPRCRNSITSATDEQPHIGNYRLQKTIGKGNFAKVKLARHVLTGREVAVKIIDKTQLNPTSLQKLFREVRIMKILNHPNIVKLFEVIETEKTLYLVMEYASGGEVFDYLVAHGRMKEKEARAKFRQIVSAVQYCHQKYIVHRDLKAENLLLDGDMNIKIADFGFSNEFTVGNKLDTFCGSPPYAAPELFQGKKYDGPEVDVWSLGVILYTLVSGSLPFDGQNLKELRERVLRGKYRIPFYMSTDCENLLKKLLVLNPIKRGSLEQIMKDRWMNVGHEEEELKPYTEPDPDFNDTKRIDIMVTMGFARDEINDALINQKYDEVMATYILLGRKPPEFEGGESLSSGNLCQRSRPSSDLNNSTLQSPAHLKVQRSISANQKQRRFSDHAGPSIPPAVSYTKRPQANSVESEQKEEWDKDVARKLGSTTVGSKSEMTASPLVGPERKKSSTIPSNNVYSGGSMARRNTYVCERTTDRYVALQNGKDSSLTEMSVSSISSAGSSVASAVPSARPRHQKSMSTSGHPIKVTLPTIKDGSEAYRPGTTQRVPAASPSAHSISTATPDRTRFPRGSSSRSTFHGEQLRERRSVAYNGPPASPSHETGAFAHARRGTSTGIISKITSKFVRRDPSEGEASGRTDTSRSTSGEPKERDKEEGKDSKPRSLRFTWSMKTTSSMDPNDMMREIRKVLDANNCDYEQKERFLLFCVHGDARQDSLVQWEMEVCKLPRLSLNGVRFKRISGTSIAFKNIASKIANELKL
Excerpt: as §1, §2

[9] = target: MARK2 (Homo sapiens (Human), UniProt Q7KZI7); assay: KINOMEscan kinome screen; settings: percent of negative control binding
Excerpt: as §1, §2

[10] = target: MARK3 (Homo sapiens (Human), UniProt P27448); assay: KINOMEscan kinome screen; settings: percent of negative control binding
Sequence of MARK3 (P27448 whole entry): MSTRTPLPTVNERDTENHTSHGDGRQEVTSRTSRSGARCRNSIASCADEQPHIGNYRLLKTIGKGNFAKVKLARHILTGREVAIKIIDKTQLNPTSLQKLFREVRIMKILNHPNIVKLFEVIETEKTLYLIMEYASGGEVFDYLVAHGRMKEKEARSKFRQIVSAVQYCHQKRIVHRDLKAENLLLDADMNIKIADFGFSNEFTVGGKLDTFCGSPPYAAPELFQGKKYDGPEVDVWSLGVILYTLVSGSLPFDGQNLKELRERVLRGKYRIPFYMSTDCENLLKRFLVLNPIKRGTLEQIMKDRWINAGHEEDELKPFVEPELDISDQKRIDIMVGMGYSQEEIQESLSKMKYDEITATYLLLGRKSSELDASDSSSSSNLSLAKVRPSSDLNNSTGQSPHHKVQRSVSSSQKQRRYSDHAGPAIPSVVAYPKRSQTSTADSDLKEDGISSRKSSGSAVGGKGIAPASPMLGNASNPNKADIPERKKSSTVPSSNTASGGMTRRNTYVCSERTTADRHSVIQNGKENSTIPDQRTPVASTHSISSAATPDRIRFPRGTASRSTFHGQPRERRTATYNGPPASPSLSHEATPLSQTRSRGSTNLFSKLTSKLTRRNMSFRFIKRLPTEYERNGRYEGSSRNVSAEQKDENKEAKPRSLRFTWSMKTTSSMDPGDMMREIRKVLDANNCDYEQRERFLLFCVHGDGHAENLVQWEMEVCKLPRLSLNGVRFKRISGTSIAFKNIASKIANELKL
Excerpt: as §1, §2

[11] = target: MARK4 (Homo sapiens (Human), UniProt Q96L34); assay: KINOMEscan kinome screen; settings: percent of negative control binding
Excerpt: as §1, §2

[12] = target: MEK1 (Homo sapiens (Human), UniProt Q02750); assay: KINOMEscan kinome screen; settings: percent of negative control binding
Excerpt: as §1, §2

[13] = target: MEK2 (Homo sapiens (Human), UniProt P36507); assay: KINOMEscan kinome screen; settings: percent of negative control binding
Sequence of MEK2 (P36507 whole entry): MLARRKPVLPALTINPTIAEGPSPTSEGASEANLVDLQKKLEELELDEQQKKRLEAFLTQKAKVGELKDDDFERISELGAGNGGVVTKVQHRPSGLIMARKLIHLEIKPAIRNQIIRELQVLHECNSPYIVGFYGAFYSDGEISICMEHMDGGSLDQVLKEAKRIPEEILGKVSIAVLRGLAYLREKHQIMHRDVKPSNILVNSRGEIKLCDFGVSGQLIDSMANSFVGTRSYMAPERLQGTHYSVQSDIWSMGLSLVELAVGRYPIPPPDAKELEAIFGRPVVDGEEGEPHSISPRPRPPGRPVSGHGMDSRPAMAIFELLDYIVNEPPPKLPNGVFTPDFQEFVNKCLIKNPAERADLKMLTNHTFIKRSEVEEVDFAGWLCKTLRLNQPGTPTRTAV
Excerpt: as §1, §2

[14] = target: PRKCQ (Homo sapiens (Human), UniProt Q04759); assay: KINOMEscan kinome screen; settings: percent of negative control binding
Sequence of PRKCQ (Q04759 whole entry): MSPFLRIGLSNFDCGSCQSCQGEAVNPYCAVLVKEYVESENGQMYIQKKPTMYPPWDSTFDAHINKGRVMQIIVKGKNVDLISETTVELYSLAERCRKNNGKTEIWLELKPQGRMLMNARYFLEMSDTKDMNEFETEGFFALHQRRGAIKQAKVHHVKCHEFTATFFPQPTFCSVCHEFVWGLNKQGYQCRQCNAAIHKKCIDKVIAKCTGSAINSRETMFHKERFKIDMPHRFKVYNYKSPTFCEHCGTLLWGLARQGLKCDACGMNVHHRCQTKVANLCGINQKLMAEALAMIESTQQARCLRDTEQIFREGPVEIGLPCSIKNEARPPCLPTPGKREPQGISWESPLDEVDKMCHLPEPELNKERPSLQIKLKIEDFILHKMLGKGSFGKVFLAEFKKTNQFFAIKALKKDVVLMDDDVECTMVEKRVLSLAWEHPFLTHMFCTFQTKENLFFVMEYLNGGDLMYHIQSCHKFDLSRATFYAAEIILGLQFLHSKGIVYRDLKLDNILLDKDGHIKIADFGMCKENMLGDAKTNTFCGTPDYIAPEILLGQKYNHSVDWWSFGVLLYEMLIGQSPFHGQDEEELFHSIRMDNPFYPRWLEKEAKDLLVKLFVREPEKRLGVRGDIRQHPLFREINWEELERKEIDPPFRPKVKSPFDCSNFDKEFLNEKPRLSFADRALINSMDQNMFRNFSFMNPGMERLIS
Excerpt: as §1, §2

[15] = target: SLK (Homo sapiens (Human), UniProt Q9H2G2); assay: KINOMEscan kinome screen; settings: percent of negative control binding
Excerpt: as §1, §2

[16] = target: NET (norepinephrine transporter) (Homo sapiens (Human), UniProt P23975); assay: SAFETYscan neurotransmitter transporter activity; type: cell-based
Description: (§3) The SAFETYscan™ (DiscoverX) is used for rapid testing of any compound against a panel that includes well-known membrane proteins of importance for drug development such as selected voltage-gated ion channels, G-protein coupled receptors, neurotransmitter transporters and also a selected group of purified cellular enzymes.
(§4) Cell lines engineered to express individual transmembrane receptor proteins such as the muscarinic acetylcholine receptor or the dopamine D1 receptor were grown in culture in their standard growth medium until reaching confluence. […] The experiment also contains controls for comparison including known agonists and antagonists of the targeted membrane proteins.

[17] = target: SERT (serotonin transporter) (Homo sapiens (Human), UniProt P31645); assay: SAFETYscan neurotransmitter transporter activity; type: cell-based
Description: as §3, §4

[18] = target: T1, ROCK2 (Homo sapiens (Human), UniProt O75116); settings: ratio of dissociation constants ROCK1/ROCK2
Description: (§5) The assay is performed by combining the DNA-tagged kinase, immobilized ligand, and a test compound. The ability of the test compound to compete with the immobilized ligand is measured via quantitative PCR of the DNA tag.
(§6) The highest concentration tested was 30 μM.

[19] = target: T1, ROCK2; assay: biochemical
Description: as §5, §6

[20] = Systolic blood pressure in mice, tail cuff plethysmography; settings: 0.5, 1, 3 mg/kg in drinking water; Example 18, present tense
Description: Three test cohorts of mice are housed with unlimited access to normal chow and drinking water. For the first 5 days, the mice are handled daily to habituate them to contact and their blood pressures measured using a multi-animal tail cuff plethysmography apparatus (MRBP Tail Cuff Blood Pressure System; IITC Life Science; Woodland Hills, Calif.). […] These values serve as the baseline.
The third cohort receives normal, unadulterated drinking water. On day 8, blood pressure is measured for all mice.
After the day 8 blood pressure measurement, drug dosage in the 2 test cohorts is increased to 1 mg/kg-body weight and the cohort continues for 3 days at the new dose. On day 11, blood pressure is again recorded by tail cuff plethysmography for all mice during a 5 min. recording session.
Following the blood pressure recording, ON DAY 11, drug dosages in drinking water of test groups are increased up to 3 mg/kg-body weight and the cohorts continue for 3 days at the new dose. On day 14, blood pressure is recorded by tail cuff plethysmography for all mice during a 5 min. recording session.

[21] = tested on: HUVEC monolayer; assay: LPA-treated HUVECs, endothelial monolayer integrity; type: cell-based, human; settings: 1 μM or 10 μM, 20 μM LPA 60 min
Description: Cell lines were exposed to each dose for 1 hr, and then are stimulated with 20 μM LPA for either 5 min or 1 hr as described below. All experiments were conducted in triplicate and analyzed by two independent assessors blinded to both cell line and treatment.
To examine HUVEC monolayer integrity, cells were plated on PDL-coated coverslips (Corning) coated with fibronectin, collagen-1 and gelatin. 50,000 cells were seeded on each coverslip situated in a 24-well plate. Cells were grown for 3 days at 37° C./5% CO2. […] The medium was exchanged by Medium 200 supplemented with 0.1% HSA and 20 μM of LPA (Santa Cruz) and incubated for 60 min.
After LPA stimulation, cells were fixed with 4% paraformaldehyde and stained for actin-phalloidin (ThermoFisher, Waltham, Mass.) and V-Cadherin (Cell Signaling, Danvers, Mass.) and mounted on microscope slides. Coverslips were imaged by fluorescence microscopy and the cell free holes in the monolayer are measured using Image J (freeware; https://imagej.nih.gov/ij/).

[22] = tested on: Rho/ROCK activity (MLC2 diphosphorylation) in human brain microvascular endothelial cells; assay: LPA-treated hBMVECs, pMLC2 T18/S19 immunoblot; type: cell-based; settings: 20 μM LPA, Example 16, present tense
Description: Cells are exposed to each dose for 1 hr, and are then stimulated with 20 μM LPA for either 5 min or 1 hr as described below. All experiments are conducted in triplicate and analyzed by 2 independent assessors blinded to both cell line and treatment.
Cells are subjected to biochemical analysis of diphosphorylated MLC2 (Threonine 18/Serine 19 phosphorylation sites) and phosphorylated cofilin (Serine 9 phosphorylation site) using SDS-PAGE and immunoblotting. Cells are plated in 24-well tissue culture plates coated with 70 μg/ml rat collagen-1 (Corning) and grown in ENDO-growth media (Neuromics) for 3 days at 37° C./5% CO2 until confluency. […] The medium is exchanged for ENDO basal media supplemented with 1% HSA, 20 μM of LPA (Santa Cruz Biotech; Santa Cruz, Calif.) and the appropriate amount of compound being tested. After 5 min, the medium is aspirated and the cells are briefly washed with 1×PBS. Proteins are extracted from cells by lysis with RIPA buffer supplemented with complete protease/phosphatase inhibitor (HALT, Thermo Fisher Scientific), reduced and denatured using Laemmli sample buffer (BioRad; Hercules, Calif., beta-mercaptoethanol and subjected to SDS-PAGE.
Denatured samples are electrophoresed in reducing 10% Bis-Tris-PA gels (Novex; Thermo-Fisher), and are transferred onto 0.25 μm PVDF membranes (EMD Millipore). Membranes are probed using amti-pMLC2 T18/S19 (1:500; Cell Signaling) or anti-pCofilin (1:500, Cell Signaling S9) and anti-glyceraldehyde 3-phosphate dehydrogenase loading control (GAPDH, 1:10000; Abcam, Cambridge, Mass.). Protein levels are detected using a chemiluminescence substrate (Super Signal West, ThermoFisher) and images are captured using a FluoroChem SP Imaging System.

[23] = tested on: AMPK (1 and 2); assay: KINOMEscan kinome screen; parameters: species or system human; settings: percent of negative control binding; 100% equals no interference
Excerpt: as §1, §2

[24] = tested on: GCN; assay: KINOMEscan kinome screen; parameters: species or system human; settings: percent of negative control binding
Excerpt: as §1, §2

[25] = tested on: ROCK1; assay: KINOMEscan kinome screen; settings: percent of negative control binding; first ROCK1 row
Excerpt: as §1, §2

Row | SMILES | maximum reduction of ppMLC2 levels [4] [%] | % Negative Binding, ALK [5] [%] | % Negative Binding, FGFR4 [6] [%] | % Negative Binding, IRAK3 [7] [%] | % Negative Binding, MARK1 [8] [%] | % Negative Binding, MARK2 [9] [%] | % Negative Binding, MARK3 [10] [%] | % Negative Binding, MARK4 [11] [%] | % Negative Binding, MEK1 [12] [%] | % Negative Binding, MEK2 [13] [%] | % Negative Binding, PRKCQ [14] [%] | % Negative Binding, SLK [15] [%] | other results
1 | C[C@@H](N)C1CCN(S(=O)(=O)c2cccc3cnccc23)CC1 [BA-1049 (R)] | 89 | 94 | 100 | 92 | 67 | 100 | 100 | 94 | 99 | 99 | 74 | 70 | findings in daily repeat dosing ([1]; 1 mg/kg and 10 mg/kg once daily I.P. for 2 weeks): no abnormal findings; no observed effect level dose ([1]; 2 week repeat dose, I.P.): 10 mg/kg; ½ Life [2]: 41.7 min; time detectable in brain after administration ([3]; 5 mg/kg BA-1049 (R) IV): at least 24 hr; pEC50 ([4]; Homo sapiens, HUVEC): 5.42; inhibition at 10 µM [16]: 12%; inhibition at 10 µM ([17]; read-out: % Inhibition of Neurotransmitter Transporter Activity, SERT): 9%; Fractional Selectivity for ROCK2 [18]: 1.86; pKd ([19]; ROCK2 KD, average of duplicate determinations, Table 5): 7.20; pKd ([19]; ROCK2 Kd, Table 1): 7.23; effect on average systolic blood pressure [20]: little or no effect on average systolic blood pressure
2 | C[C@@H](N)C1CCN(S(=O)(=O)c2cccc3c(=O)[nH]ccc23)CC1 [1-hydroxy-BA-1049 (R)] | 94 | 81 | 100 | 96 | 69 | 100 | 81 | 92 | 100 | 97 | 66 | 100 | time detectable in brain after administration ([3]; in vivo, iv, 5 mg/kg): < 12 h; monolayer integrity after LPA [21]: restores monolayer integrity; concentration fully abolishing MLC2 diphosphorylation [22]: ≥ 10 µM; effect on MLC2 diphosphorylation (pMLC2 T18/S19) ([22]; no data shown): reduce MLC2 diphosphorylation; pEC50 [4]: 6.35; % Negative Binding, AMPK (1 and 2) [23]: 100%; % Negative Binding, GCN [24]: 96%; % Negative Binding, ROCK1 [25]: 0.15%; % Inhibition of Neurotransmitter Transporter Activity, NET ([16]; 10 μM): 11%; % Inhibition of Neurotransmitter Transporter Activity, SERT ([17]; 10 μM): 14%

— patent publication US11198680B2 (BioAxone BioSciences, Inc., priority 2016, dated 2021)
